Laboratory results: patent US20090137617A1, “USE OF HAPTOGLOBIN GENOTYPING IN DIAGNOSIS AND TREATMENT OF CARDIOVASCULAR DISEASE” (priority 2007, published 2009)
Like-named read-outs stand apart in the source and are kept apart here.

Legend:
[1] = system: cultured endothelial cells; details: vitamin E added to the cellular preparation; cited from earlier work
[2] = system: DM individuals with the Hp 2-2 genotype; assay: ICARE study: randomized placebo-controlled trial of vitamin E, cardiovascular events (MI, stroke, CVD death); assay type: in vivo, human
Source text: The study protocol of the ICARE study involves the following: participants were drawn from 47 primary health clinics of the […] Health Services in the northern sector of Israel. […] These Hp 2-2 individuals were randomly assigned to treatment with either vitamin E or placebo. The major study outcomes (MI, stroke, CVD death) were identified prospectively in this population over an 18 month period. A preplanned secondary analysis of ICARE was to assess the ability of vitamin E therapy to influence outcomes in those ICARE participants who were also taking statins. Statin use as prospectively defined in ICARE was based on the use of statins by the participant in at least eight of the twelve months preceding enrollment of the participant in the study. The decision to use statins for a particular participant was under the discretion of the patient's primary care physician and was in no way influenced by the patient's participation in the ICARE study […] However, only about half of the Hp 2-2 DM participants in ICARE received statin therapy. […] Of the 801 Hp 2-2 individuals taking […] cohort, 386 were randomized to vitamin E and 415 to placebo. There was no significant difference in the baseline characteristics, concurrent medications, or diabetes characteristics between those individuals taking statins who were randomized to placebo or vitamin E.

[3] = animal studies; cited from earlier work
[4] = double-blind protocols and other large studies, even at high doses; cited from earlier work
[5] = per 1 mg, according to the National Formulary, cited from earlier work

Compound: alpha-tocopherol [vitamin E]
- oxidative modification of LDL [1]: totally inhibited
- event rate (MI, stroke, CVD death) ([2]; Hp 2-2 DM individuals taking statins (at least eight of the twelve months preceding enrollment), randomized to vitamin E, 18 month period): 1.3%
- hazard ratio [HR] vs placebo ([2]; Hp 2-2 DM individuals taking statins, vitamin E vs placebo, 95% CI 0.15-0.83, p=0.017 by log-rank): 0.31
- reduction in CVD events ([2]; all Hp 2-2 DM participants in ICARE, vitamin E vs placebo): 50%
- event rate (MI, stroke, CVD death) ([2]; statin use widened to at least one of the twelve months preceding enrollment, p=0.013 vs placebo): 1.7%
- carcinogenicity / teratogenicity [3]: not carcinogenic or teratogenic
- side effects [4]: few side effects

Compound: CC(=O)Oc1c(C)c(C)c2c(c1C)CC[C@@](C)(CCC[C@H](C)CCC[C@H](C)CCCC(C)C)O2 (racemic) [dl-alpha-tocopheryl acetate]
- specific activity (IU per milligram) ([5]; listed as all-rac-α-tocopherol acetate): 1.00 IU

Compound: CC(=O)Oc1c(C)c(C)c2c(c1C)CC[C@@](C)(CCC[C@H](C)CCC[C@H](C)CCCC(C)C)O2 [d-alpha-tocopheryl acetate]
- specific activity (IU per milligram) ([5]; listed as RRR-.alpha-tocopherol acetate): 1.36 IU

Compound: Cc1c(C)c2c(c(C)c1O)CCC(C)(CCCC(C)CCCC(C)CCCC(C)C)O2 (racemic) [dl-alpha-tocopherol]
- specific activity (IU per milligram) [5]: 1.10 IU

Compound: Cc1c(C)c2c(c(C)c1O)CC[C@@](C)(CCC[C@H](C)CCC[C@H](C)CCCC(C)C)O2 [d-alpha-tocopherol]
- specific activity (IU per milligram) [5]: 1.49 IU
